# Reference: patent US9908877B2, “Imidazo[1,5-a]pyridinium ion fluorophores, and methods of making and using the same” (Indiana University Research and Technology Corporation, priority 2013, dated 2018)
# Legend:
# Assay type in all cases: physicochemical
# [1] = Fluorescence response to pH in buffered water; conditions: buffered water, 298 K, pH from 7.5 to 2.5
# Protocol: Stock solutions of each compound (having a concentration of from 1-5 mM) were prepared by dissolving the corresponding salts of the compounds in methanol or 1V, N-dimethylformamide, and then diluting the same with acetonitrile or buffered water having a pH of from 2.5 to 7.5 derived from 0.2 M […] and 0.1 M citric acid, to achieve a sample solution having a compound concentration of 30.0 μM.
# The emission spectrum for each sample was obtained. The results are illustrated by the plot in FIG. 2A.
# The emission spectrum for each sample was obtained. […] The results are illustrated in the plot of FIG. 2B.
# The fluorescence emission spectrum of Compound 8 in water having a pH of 2.5 was also obtained and is illustrated by the curved line with a peak at 360 nm in FIG. 5B.
# Compounds 10, 11, and 12 were each individually added, at a concentration of 30 μM, to water having a pH=7.5 and the emission spectra of each were obtained. […] As the pH was decreased from 7.5 to 2.5 in 0.5 pH unit increments, fluorescence emission at 600 nm remained relatively nonexistent and the intensity of the fluorescence emission at 400 nm increased in correlation to the decrease in pH. FIG. 8A illustrates the emission properties of Compound 12.
# [2] = Fluorescence emission spectrum (maximum emission wavelength)
# Protocol: Method for Obtaining a Fluorescence Emission Spectrum
# Fluorescence emission spectra are obtained and recorded on a QM-4-CW Spectrofluorometer using FeliX32 software (Photon Technology International, Inc., Birmingham, N.J.).
# (§1) The compounds were analyzed at 298° K according to the Method for Obtaining Ultraviolet-Visible Light Spectrum (30 μM acetonitrile) to obtain the maximum absorbance wavelength (λabs,max), Method for Obtaining Fluorescence Emission Spectrum (30 μM acetonitrile) to obtain the maximum emission wavelength (λem,max) and Method for Determining Quantum Yield (ΦF) (30 μM acetonitrile) at the concentration, in the solvent, and with the counter ion indicated in Table 1. The compounds included hydrogen at each R group that is not otherwise specified.
# (§2) Compounds 6, 7, 9, 11-14 and 21 were analyzed according to: the Method for Obtaining Ultraviolet-Visible Light Spectrum to obtain the maximum absorbance wavelength (λabs,max), the Method for Obtaining Fluorescence Emission Spectrum to obtain the maximum emission wavelength (λem,max), and the Method for Determining Quantum Yield (ΦF) in the solvent and with the counter ion indicated in Table 3.
# [3] = Ultraviolet-visible light spectrum (maximum absorbance wavelength)
# Protocol: Method for Obtaining an Ultraviolet-Visible Light Spectrum
# Ultraviolet-visible (UV-Vis) Light spectra are obtained and recorded on an Agilent 8453 spectrophotometer using ChemStation software (Agilent Technologies, Inc., Santa Clara, Calif.).
# as §1, §2
smiles,measurement,setting,value
"CCN(CC)c1ccc(-c2c3cccc[n+]3cn2-c2ccc(OC)cc2)cc1.[Cl-] [Compound 6, 1-(4-(diethylamino)phenyl)-2-(4-methoxyphenyl)-2H-imidazo[1,5-a]pyridin-4-ium chloride]","λem,max of the emission that decreases as pH decreases",[1],580 nm
same,"λem,max of the emission that increases as pH decreases",[1],400 nm
same,"λem, max Em","[2]; H2O (pH not given), 30 μM",580 nm
same,"λem, max Em","[2]; H2O pH = 2.5, 30 μM",400 nm
same,"λem, max Em","[2]; MeCN + 13.8 uL TFA, 30 μM",405 nm
same,"λem, max Em","[2]; MeCN, 30 μM",565 nm
same,"λabs, max Abs","[3]; H2O (pH not given), 30 μM",350 nm
same,"λabs, max Abs","[3]; H2O pH = 2.5, 30 μM",350 nm
same,"λabs, max Abs","[3]; MeCN + 13.8 uL TFA, 30 μM",350 nm
same,"λabs, max Abs","[3]; MeCN, 30 μM",350 nm
